Publication PMC9469649 (Bioorganic & medicinal chemistry letters, 2022)

Legend:
[1] = molecular target: Kv7.2/7.3 heterotetramers (Homo sapiens, UniProt O43525+O43526); test: Whole cell patch-clamp electrophysiology, transfected CHO cells, Kv7.2/7.3; assay type: cell-based
[2] = tested on: Kv7.3 over Kv7.2; settings: cited from earlier work
[3] = molecular target: Kv7.2 wild type (WT) channels (Homo sapiens, UniProt O43526); test: SyncroPatch 384PE automated whole cell patch-clamp, wild type Kv7.2; assay type: cell-based
Kv7.2 wild type (WT) channels, sequence (O43526 whole entry): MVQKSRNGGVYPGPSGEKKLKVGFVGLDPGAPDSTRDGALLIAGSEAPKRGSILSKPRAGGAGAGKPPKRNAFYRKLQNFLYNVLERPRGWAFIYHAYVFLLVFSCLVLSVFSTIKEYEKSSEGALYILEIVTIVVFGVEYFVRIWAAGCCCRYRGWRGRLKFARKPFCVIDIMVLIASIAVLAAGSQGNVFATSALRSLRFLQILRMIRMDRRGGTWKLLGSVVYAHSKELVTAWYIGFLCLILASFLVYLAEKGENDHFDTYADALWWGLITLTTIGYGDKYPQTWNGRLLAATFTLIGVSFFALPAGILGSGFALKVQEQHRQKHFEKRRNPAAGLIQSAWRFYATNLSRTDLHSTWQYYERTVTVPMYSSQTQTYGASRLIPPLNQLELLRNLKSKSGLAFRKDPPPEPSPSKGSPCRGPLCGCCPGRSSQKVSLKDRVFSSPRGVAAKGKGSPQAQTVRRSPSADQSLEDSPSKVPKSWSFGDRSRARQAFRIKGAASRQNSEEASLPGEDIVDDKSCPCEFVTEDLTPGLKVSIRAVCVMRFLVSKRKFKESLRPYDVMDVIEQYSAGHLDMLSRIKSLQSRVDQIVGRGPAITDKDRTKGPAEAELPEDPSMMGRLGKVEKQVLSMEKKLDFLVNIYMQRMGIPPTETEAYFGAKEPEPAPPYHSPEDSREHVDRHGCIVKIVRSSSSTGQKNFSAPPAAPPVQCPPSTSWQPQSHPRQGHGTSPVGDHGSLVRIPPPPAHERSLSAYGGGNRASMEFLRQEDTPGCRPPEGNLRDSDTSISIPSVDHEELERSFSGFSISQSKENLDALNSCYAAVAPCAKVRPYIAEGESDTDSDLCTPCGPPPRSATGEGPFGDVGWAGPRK

Nc1c(NC(=O)OC2CC2)ccc(NCc2ccc(C(F)(F)F)cc2)c1F [RL-56]
EC50 [1]: ~20 nM

CCOC(=O)Nc1ccc(NCc2ccc(F)cc2)cc1N [Retigabine, retigabine]
lower EC50 for Kv7.3 over Kv7.2 [2]: ca. 4 fold

[2H]c1cc(NC(=O)OCC)c(N)c(F)c1NCc1ccc(C(F)(F)F)cc1 [RL-25]
activity on Kv7.2 relative to RL-71 (less active) ([3]; from EC50 values, Table 2): 20 fold
potency on Kv7.2 relative to retigabine (more potent) ([3]; from EC50 values, Table 2): 4 fold

CCOC(=O)Nc1cc(F)c2c(c1N)S(=O)(=O)CC(c1ccccc1)N2 (centres unmarked) [CH-02]
Kv7.2 channel activity ([3]; SyncroPatch screen, 5 μM): completely inactive
